Measured values from ChEMBL document CHEMBL2073763, “Functional involvement of rat organic anion transporter 3 (rOat3; Slc22a8) in the renal uptake of organic anions” (J Pharmacol Exp Ther, 2002).

T1: Organic anion transporter 3 (Rattus norvegicus, UniProt Q9R1U7)
T1 sequence (Q9R1U7 whole entry): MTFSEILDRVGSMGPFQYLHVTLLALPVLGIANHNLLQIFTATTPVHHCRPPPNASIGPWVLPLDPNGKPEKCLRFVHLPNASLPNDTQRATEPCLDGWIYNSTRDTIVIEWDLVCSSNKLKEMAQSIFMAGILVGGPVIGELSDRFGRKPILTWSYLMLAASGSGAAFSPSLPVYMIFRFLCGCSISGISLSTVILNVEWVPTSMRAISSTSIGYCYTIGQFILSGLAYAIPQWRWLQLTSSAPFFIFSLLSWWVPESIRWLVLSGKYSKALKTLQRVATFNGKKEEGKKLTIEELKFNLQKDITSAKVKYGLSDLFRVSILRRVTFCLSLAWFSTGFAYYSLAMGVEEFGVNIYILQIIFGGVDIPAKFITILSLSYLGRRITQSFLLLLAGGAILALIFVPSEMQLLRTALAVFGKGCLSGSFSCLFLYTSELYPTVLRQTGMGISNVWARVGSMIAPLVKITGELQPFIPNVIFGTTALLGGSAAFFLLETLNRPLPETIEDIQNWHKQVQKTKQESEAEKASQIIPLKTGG

T2: Solute carrier family 22 member 6 (Rattus norvegicus, UniProt O35956)
T2 sequence (O35956 whole entry): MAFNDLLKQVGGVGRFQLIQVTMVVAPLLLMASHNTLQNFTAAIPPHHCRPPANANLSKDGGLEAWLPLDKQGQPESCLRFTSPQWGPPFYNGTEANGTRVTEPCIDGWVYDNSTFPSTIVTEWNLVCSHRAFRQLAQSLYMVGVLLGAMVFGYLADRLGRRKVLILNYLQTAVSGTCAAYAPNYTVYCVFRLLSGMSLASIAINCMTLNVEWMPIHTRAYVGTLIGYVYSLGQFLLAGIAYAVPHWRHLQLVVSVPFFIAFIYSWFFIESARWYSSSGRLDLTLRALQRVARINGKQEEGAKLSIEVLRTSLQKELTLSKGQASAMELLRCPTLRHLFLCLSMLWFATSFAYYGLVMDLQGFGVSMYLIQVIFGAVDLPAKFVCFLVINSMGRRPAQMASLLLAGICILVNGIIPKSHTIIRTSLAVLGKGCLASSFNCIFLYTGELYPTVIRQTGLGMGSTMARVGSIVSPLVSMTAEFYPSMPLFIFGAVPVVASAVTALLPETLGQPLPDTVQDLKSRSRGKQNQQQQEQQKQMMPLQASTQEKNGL


What was measured:
Type in all cases: functional, cell-based
[1] = target: T1, Organic anion transporter 3; experiment: TP_TRANSPORTER: inhibition of Pravastatin uptake in Oat3-expressing LLC-PK1 cells
[2] = target: T2, Solute carrier family 22 member 6; experiment: TP_TRANSPORTER: inhibition of PAH uptake in Oat1-expressing LLC-PK1 cells
[3] = substrate: CC[C@H](C)C(=O)O[C@H]1C[C@H](O)C=C2C=C[C@H](C)[C@H](CC[C@@H](O)C[C@@H](O)CC(=O)O)[C@H]21; experiment: TP_TRANSPORTER: uptake in Oat3-expressing LLC-PK1 cells

Ki [1]	Ki [2]	Molecule	Km [3]
1350 µM		Nc1ccc(C(=O)NCC(=O)O)cc1 [AMINOHIPPURIC ACID]	
3.09 µM	2.74 µM	O=C1OC(c2ccc(OS(=O)(=O)O)cc2)(c2ccc(OS(=O)(=O)O)cc2)c2c(Br)ccc(Br)c21 [DIBROMOSULFOPHTHALEIN]	
52.8 µM		CC1(C)S[C@@H]2[C@H](NC(=O)Cc3ccccc3)C(=O)N2[C@H]1C(=O)O [PENICILLIN G]	
	1150 µM	CC[C@H](C)C(=O)O[C@H]1C[C@H](O)C=C2C=C[C@H](C)[C@H](CC[C@@H](O)C[C@@H](O)CC(=O)O)[C@H]21 [PRAVASTATIN]	
		Organic anion transporter 3 (Rattus norvegicus) (protein) MTFSEILDRVGSMGPFQYLHVTLLALPVLGIANHNLLQIFTATTPVHHCRPPPNASIGPWVLPLDPNGKPEKCLRFVHLPNASLPNDTQRATEPCLDGWIYNSTRDTIVIEWDLVCSSNKLKEMAQSIFMAGILVGGPVIGELSDRFGRKPILTWSYLMLAASGSGAAFSPSLPVYMIFRFLCGCSISGISLSTVILNVEWVPTSMRAISSTSIGYCYTIGQFILSGLAYAIPQWRWLQLTSSAPFFIFSLLSWWVPESIRWLVLSGKYSKALKTLQRVATFNGKKEEGKKLTIEELKFNLQKDITSAKVKYGLSDLFRVSILRRVTFCLSLAWFSTGFAYYSLAMGVEEFGVNIYILQIIFGGVDIPAKFITILSLSYLGRRITQSFLLLLAGGAILALIFVPSEMQLLRTALAVFGKGCLSGSFSCLFLYTSELYPTVLRQTGMGISNVWARVGSMIAPLVKITGELQPFIPNVIFGTTALLGGSAAFFLLETLNRPLPETIEDIQNWHKQVQKTKQESEAEKASQIIPLKTGG	13.4 µM
